From patent US12473250B2, “Molecular design of new antibiotics and antibiotic adjuvants against MCR strains” (priority 2019, dated 2025)

System: various pathogens
Experiment: organism not typed
Type: cell-based
Summary of the method: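 Broth microdilution MIC per CLSI: each agent alone and LC compound plus antibiotic (e.g. colistin) combined in equal amounts, serially diluted 2-fold at fixed synergy concentration.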

Q: Colistin was tested. Which “FOLD CHANGES [Absorbance (abs; OD 600 nm)] No Treatment [Bacteria alone]: Colistin 0.5 μg” value (E. Coli CRE 17232) did it give?
A: The value was 1.31.

Q: What about the “FOLD CHANGES [Absorbance (abs; OD 600 nm)] No Treatment [Bacteria alone]: MIC Colistin” value (E. Coli CRE 17232) of the same substance?
A: Its value is 16.09.

Q: What about the MIC (E. Coli CRE 17232) of the same substance?
A: The MIC was 0.78 µg/mL.

Q: And the “FOLD CHANGES [Absorbance (abs; OD 600 nm)] No Treatment [Bacteria alone]: Colistin 0.5 μg” value (E. Coli CRE 17528)?
A: Its value is 1.45.

Q: And the “FOLD CHANGES [Absorbance (abs; OD 600 nm)] No Treatment [Bacteria alone]: MIC Colistin” value (E. Coli CRE 17528)?
A: Its value is 20.21.

Q: And the MIC (E. Coli CRE 17528)?
A: Its MIC is 0.78 µg/mL.

Q: What about the “FOLD CHANGES [Absorbance (abs; OD 600 nm)] No Treatment [Bacteria alone]: Colistin 0.5 μg” value (E. Coli CRE 19211) of the same substance?
A: Its value is 1.17.

Q: What about the “FOLD CHANGES [Absorbance (abs; OD 600 nm)] No Treatment [Bacteria alone]: MIC Colistin” value (E. Coli CRE 19211) of the same substance?
A: Its value is 20.56.

Q: And the MIC (E. Coli CRE 19211)?
A: The MIC was 1.56 µg/mL.

Q: And the “FOLD CHANGES [Absorbance (abs; OD 600 nm)] No Treatment [Bacteria alone]: Colistin 0.5 μg” value (E. Coli CRE 34685)?
A: Its value is 1.49.

Q: What about the “FOLD CHANGES [Absorbance (abs; OD 600 nm)] No Treatment [Bacteria alone]: MIC Colistin” value (E. Coli CRE 34685) of the same substance?
A: The value was 22.63.

Q: What about the MIC (E. Coli CRE 34685) of the same substance?
A: The MIC was 0.78 µg/mL.

Q: And the “FOLD CHANGES [Absorbance (abs; OD 600 nm)] No Treatment [Bacteria alone]: Colistin 0.5 μg” value (E. Coli DB 16027R)?
A: Its value is 1.23.

Q: What about the “FOLD CHANGES [Absorbance (abs; OD 600 nm)] No Treatment [Bacteria alone]: MIC Colistin” value (E. Coli DB 16027R) of the same substance?
A: Its value is 14.89.

Q: And the MIC (E. Coli DB 16027R)?
A: Its MIC is 0.78 µg/mL.

Q: What about the “FOLD CHANGES [Absorbance (abs; OD 600 nm)] No Treatment [Bacteria alone]: Colistin 0.5 μg” value (KLPN ATCC 4352) of the same substance?
A: Its value is 1.81.

Q: And the “FOLD CHANGES [Absorbance (abs; OD 600 nm)] No Treatment [Bacteria alone]: MIC Colistin” value (KLPN ATCC 4352)?
A: The value was 3.54.

Q: What about the MIC (KLPN ATCC 4352) of the same substance?
A: Its MIC is 0.78 µg/mL.

Q: What about the “FOLD CHANGES [Absorbance (abs; OD 600 nm)] No Treatment [Bacteria alone]: Colistin 0.5 μg” value (KLPN ATCC 10031) of the same substance?
A: The value was 1.25.

Q: What about the “FOLD CHANGES [Absorbance (abs; OD 600 nm)] No Treatment [Bacteria alone]: MIC Colistin” value (KLPN ATCC 10031) of the same substance?
A: The value was 10.11.

Q: What about the MIC (KLPN ATCC 10031) of the same substance?
A: Its MIC is 1.56 µg/mL.

Q: What about the “FOLD CHANGES [Absorbance (abs; OD 600 nm)] No Treatment [Bacteria alone]: Colistin 0.5 μg” value (KLPN ATCC 27736) of the same substance?
A: The value was 1.21.

Q: What about the “FOLD CHANGES [Absorbance (abs; OD 600 nm)] No Treatment [Bacteria alone]: MIC Colistin” value (KLPN ATCC 27736) of the same substance?
A: Its value is 9.67.

Q: And the MIC (KLPN ATCC 27736)?
A: Its MIC is 0.78 µg/mL.

Q: What about the “FOLD CHANGES [Absorbance (abs; OD 600 nm)] No Treatment [Bacteria alone]: Colistin 0.5 μg” value (KLPN ATCC 35657) of the same substance?
A: Its value is 1.57.

Q: And the “FOLD CHANGES [Absorbance (abs; OD 600 nm)] No Treatment [Bacteria alone]: MIC Colistin” value (KLPN ATCC 35657)?
A: Its value is 13.49.

Q: What about the MIC (KLPN ATCC 35657) of the same substance?
A: The MIC was 1.56 µg/mL.

Q: What about the “FOLD CHANGES [Absorbance (abs; OD 600 nm)] No Treatment [Bacteria alone]: Colistin 0.5 μg” value (KLPN ATCC 700603) of the same substance?
A: Its value is 1.11.

Q: What about the “FOLD CHANGES [Absorbance (abs; OD 600 nm)] No Treatment [Bacteria alone]: MIC Colistin” value (KLPN ATCC 700603) of the same substance?
A: Its value is 9.64.

Q: What about the MIC (KLPN ATCC 700603) of the same substance?
A: Its MIC is 1.56 µg/mL.

Q: What about the “FOLD CHANGES [Absorbance (abs; OD 600 nm)] No Treatment [Bacteria alone]: Colistin 0.5 μg” value (KLPN CRE 7955) of the same substance?
A: The value was 1.64.

Q: And the “FOLD CHANGES [Absorbance (abs; OD 600 nm)] No Treatment [Bacteria alone]: MIC Colistin” value (KLPN CRE 7955)?
A: The value was 10.28.

Q: And the MIC (KLPN CRE 7955)?
A: Its MIC is 1.56 µg/mL.

Q: What about the “FOLD CHANGES [Absorbance (abs; OD 600 nm)] No Treatment [Bacteria alone]: Colistin 0.5 μg” value (KLPN CRE 15588) of the same substance?
A: The value was 2.50.

Q: And the “FOLD CHANGES [Absorbance (abs; OD 600 nm)] No Treatment [Bacteria alone]: MIC Colistin” value (KLPN CRE 15588)?
A: The value was 7.39.

Q: And the MIC (KLPN CRE 15588)?
A: Its MIC is 0.78 µg/mL.

Q: What about the “FOLD CHANGES [Absorbance (abs; OD 600 nm)] No Treatment [Bacteria alone]: Colistin 0.5 μg” value (KLPN CRE 16260) of the same substance?
A: The value was 1.06.

Q: What about the MIC (KLPN CRE 16260) of the same substance?
A: Its MIC is over 50 µg/mL.

Q: And the “FOLD CHANGES [Absorbance (abs; OD 600 nm)] No Treatment [Bacteria alone]: Colistin 0.5 μg” value (KLPN CRE 27025)?
A: Its value is 5.24.

Q: What about the “FOLD CHANGES [Absorbance (abs; OD 600 nm)] No Treatment [Bacteria alone]: MIC Colistin” value (KLPN CRE 27025) of the same substance?
A: Its value is 11.84.

Q: What about the MIC (KLPN CRE 27025) of the same substance?
A: The MIC was 0.78 µg/mL.

Q: And the “FOLD CHANGES [Absorbance (abs; OD 600 nm)] No Treatment [Bacteria alone]: Colistin 0.5 μg” value (KLPN CRE 55301)?
A: The value was 1.09.

Q: What about the “FOLD CHANGES [Absorbance (abs; OD 600 nm)] No Treatment [Bacteria alone]: MIC Colistin” value (KLPN CRE 55301) of the same substance?
A: Its value is 9.00.

Q: What about the MIC (KLPN CRE 55301) of the same substance?
A: Its MIC is 0.78 µg/mL.

Q: What about the “FOLD CHANGES [Absorbance (abs; OD 600 nm)] No Treatment [Bacteria alone]: Colistin 0.5 μg” value (PAE ATCC 9027) of the same substance?
A: The value was 0.98.

Q: What about the “FOLD CHANGES [Absorbance (abs; OD 600 nm)] No Treatment [Bacteria alone]: MIC Colistin” value (PAE ATCC 9027) of the same substance?
A: The value was 8.80.

Q: What about the MIC (PAE ATCC 9027) of the same substance?
A: The MIC was 1.56 µg/mL.

Q: What about the “FOLD CHANGES [Absorbance (abs; OD 600 nm)] No Treatment [Bacteria alone]: Colistin 0.5 μg” value (PAE ATCC 9721) of the same substance?
A: Its value is 1.01.

Q: What about the “FOLD CHANGES [Absorbance (abs; OD 600 nm)] No Treatment [Bacteria alone]: MIC Colistin” value (PAE ATCC 9721) of the same substance?
A: The value was 5.80.

Q: And the MIC (PAE ATCC 9721)?
A: The MIC was 1.56 µg/mL.

Q: And the “FOLD CHANGES [Absorbance (abs; OD 600 nm)] No Treatment [Bacteria alone]: Colistin 0.5 μg” value (PAE ATCC 15442)?
A: Its value is 1.03.

Q: And the “FOLD CHANGES [Absorbance (abs; OD 600 nm)] No Treatment [Bacteria alone]: MIC Colistin” value (PAE ATCC 15442)?
A: Its value is 14.00.

Q: And the MIC (PAE ATCC 15442)?
A: Its MIC is 1.56 µg/mL.

Q: And the “FOLD CHANGES [Absorbance (abs; OD 600 nm)] No Treatment [Bacteria alone]: Colistin 0.5 μg” value (PAE ATCC 27853)?
A: The value was 0.96.

Q: What about the “FOLD CHANGES [Absorbance (abs; OD 600 nm)] No Treatment [Bacteria alone]: MIC Colistin” value (PAE ATCC 27853) of the same substance?
A: The value was 8.35.

Q: And the MIC (PAE ATCC 27853)?
A: Its MIC is 0.78 µg/mL.

Q: And the “FOLD CHANGES [Absorbance (abs; OD 600 nm)] No Treatment [Bacteria alone]: Colistin 0.5 μg” value (PAE ATCC BAA-1744)?
A: Its value is 1.11.

Q: And the “FOLD CHANGES [Absorbance (abs; OD 600 nm)] No Treatment [Bacteria alone]: MIC Colistin” value (PAE ATCC BAA-1744)?
A: The value was 6.81.

Q: What about the MIC (PAE ATCC BAA-1744) of the same substance?
A: Its MIC is 1.56 µg/mL.

Q: What about the “FOLD CHANGES [Absorbance (abs; OD 600 nm)] No Treatment [Bacteria alone]: Colistin 0.5 μg” value (PAE DM 4150) of the same substance?
A: The value was 1.02.

Q: And the “FOLD CHANGES [Absorbance (abs; OD 600 nm)] No Treatment [Bacteria alone]: MIC Colistin” value (PAE DM 4150)?
A: The value was 10.34.

Q: And the MIC (PAE DM 4150)?
A: Its MIC is 3.125 µg/mL.

Q: What about the “FOLD CHANGES [Absorbance (abs; OD 600 nm)] No Treatment [Bacteria alone]: Colistin 0.5 μg” value (PAE DM 23155) of the same substance?
A: The value was 1.30.

Q: And the “FOLD CHANGES [Absorbance (abs; OD 600 nm)] No Treatment [Bacteria alone]: MIC Colistin” value (PAE DM 23155)?
A: Its value is 7.00.

Q: What about the MIC (PAE DM 23155) of the same substance?
A: Its MIC is 1.56 µg/mL.

Q: What about the “FOLD CHANGES [Absorbance (abs; OD 600 nm)] No Treatment [Bacteria alone]: Colistin 0.5 μg” value (PAE DM 23257) of the same substance?
A: The value was 1.02.

Q: And the “FOLD CHANGES [Absorbance (abs; OD 600 nm)] No Treatment [Bacteria alone]: MIC Colistin” value (PAE DM 23257)?
A: Its value is 7.71.

Q: And the MIC (PAE DM 23257)?
A: Its MIC is 1.56 µg/mL.

Q: And the “FOLD CHANGES [Absorbance (abs; OD 600 nm)] No Treatment [Bacteria alone]: Colistin 0.5 μg” value (PAE DM 23376)?
A: Its value is 0.93.

Q: And the “FOLD CHANGES [Absorbance (abs; OD 600 nm)] No Treatment [Bacteria alone]: MIC Colistin” value (PAE DM 23376)?
A: The value was 8.00.

Q: And the MIC (PAE DM 23376)?
A: The MIC was 1.56 µg/mL.

Q: And the “FOLD CHANGES [Absorbance (abs; OD 600 nm)] No Treatment [Bacteria alone]: Colistin 0.5 μg” value (PAE DR 4877)?
A: The value was 1.30.

Q: And the “FOLD CHANGES [Absorbance (abs; OD 600 nm)] No Treatment [Bacteria alone]: MIC Colistin” value (PAE DR 4877)?
A: Its value is 12.00.

Q: What about the MIC (PAE DR 4877) of the same substance?
A: Its MIC is 1.56 µg/mL.

Q: What about the “FOLD CHANGES [Absorbance (abs; OD 600 nm)] No Treatment [Bacteria alone]: Colistin 0.5 μg” value (PAE DR 5790) of the same substance?
A: The value was 1.06.

Q: What about the “FOLD CHANGES [Absorbance (abs; OD 600 nm)] No Treatment [Bacteria alone]: MIC Colistin” value (PAE DR 5790) of the same substance?
A: Its value is 10.25.

Q: And the MIC (PAE DR 5790)?
A: The MIC was 0.78 µg/mL.

Q: And the “FOLD CHANGES [Absorbance (abs; OD 600 nm)] No Treatment [Bacteria alone]: Colistin 0.5 μg” value (PAE DU 14476)?
A: Its value is 0.90.

Q: And the “FOLD CHANGES [Absorbance (abs; OD 600 nm)] No Treatment [Bacteria alone]: MIC Colistin” value (PAE DU 14476)?
A: The value was 7.21.

Q: What about the MIC (PAE DU 14476) of the same substance?
A: The MIC was 1.56 µg/mL.
